Data from patent US11419921B2, “Methods of treating neurological disorders” (EnClear Therapies, Inc., priority 2018, dated 2022).

System: (GR)10
Experiment: (GR)10 digestion with immobilized proteases (NHS-activated agarose resin) in PBS
Assay type: biochemical
Details: normalized
Protocol: Protease solutions were prepared at 2 mg/mL in sterile PBS with calcium, magnesium and 200 μL ([…]) were applied to 100 μL of pre-washed NHS-activated agarose resin in 0.8 mL centrifuge columns. Reactions were left 1.5 hour at room temperature with end-to-end mixing, after which resins were washed with 12 resin volumes of PBS. Unreacted sites were blocked with 500 μL of 1M ethanolamine for 15 minutes at room temperature and resins were further washed with 24 resin volumes. Resins were stored at 4 degrees in 500 μL of PBS containing 0.05% sodium azide as preservative.
110 μL of 50 μM (GR)10 dipeptide repeats prepared in PBS were added to each immobilized protease and incubated 5 minutes at room temperature with end-to-end mixing. Columns were spun down 1 minute at 1,000 Xg to recover digested GR dipeptides. Columns were washed with 110 μL of PBS to increase (GR)10 recovery. This procedure was repeated with 60 minutes digestion time. 100 μL of each samples were transferred to a new tube and 5 μL of 10% TFA followed by 300 μL of Dilution Solution were added. The reaction mixtures were analyzed by LC/MS to determine the concentration of GR repeats of different lengths.

[1] = resin wash from 60 min reaction

## Elastase: protease that cleaves at the carboxyl side of small hydrophobic amino acids; in Table 22 also immobilized on agarose resin
Immobilized - 5 min reaction
  (GR)1: 33.1 µM
  (GR)2: 4.8 µM
  (GR)3: 0.0 µM
  (GR)4: 0.0 µM
  (GR)5: 0.0 µM
  (GR)6: 0.0 µM
  (GR)8: 0.0 µM
  (GR)10: 0.0 µM
Immobilized - 60 min reaction
  (GR)1: 48.1 µM
  (GR)2: 0.0 µM
  (GR)3: 0.0 µM
  (GR)4: 0.0 µM
  (GR)5: 0.0 µM
  (GR)6: 0.0 µM
  (GR)8: 0.0 µM
  (GR)10: 0.0 µM
Resin wash from 5 min reaction
  (GR)1: 13.8 µM
  (GR)2: 0.0 µM
  (GR)3: 0.0 µM
  (GR)4: 0.0 µM
  (GR)5: 0.0 µM
  (GR)6: 0.0 µM
  (GR)8: 0.0 µM
  (GR)10: 0.0 µM
[1]
  (GR)1: 18.5 µM
  (GR)2: 0.0 µM
  (GR)3: 0.0 µM
  (GR)4: 0.0 µM
  (GR)5: 0.0 µM
  (GR)6: 0.0 µM
  (GR)8: 0.0 µM
  (GR)10: 0.0 µM
